Drawing on patent US11352604B2, “Method of making cardiomyocytes from human pluripotent cells” (Wisconsin Alumni Research Foundation, priority 2016, dated 2022), this text covers hPSC-CM cell size for one substance.

For this experiment, the system named is hPSC-CMs. The experiment in a line: Immunofluorescence cell size (area of cTnT staining). Format: cell-based, human. The settings on record: day 30, pI:C-treated vs untreated progenitors. The procedure:
For internal antigens, cells were rinsed of media two times in PBS, fixed for 10 minutes in 4% paraformaldehyde at RT, rinsed three times again in PBS, then blocked for 1 hour at room temperature (RT) in Licor blocking buffer containing 0.2% Triton x-100 (Sigma). Blocking solution was aspirated and antibodies added overnight at 4° C. in fresh blocking/permeabilization solution. Antibodies used were mouse cardiac troponin T (Thermo Fisher Scientific, 1:200), rabbit WT1 (Abcam 1:200), mouse smooth muscle myosin heavy chain (Abcam, 1:200), goat Jag1 c-terminal domain (1:200 Abcam), MMP1 (Abcam, 1:200), mouse cardiac actin (Sigma, 1:200), rabbit SLC25A4 (Proteintech, 1:100), rabbit DBT (Proteintech, 1:100), rabbit ATP5F1 (Proteintech, 1:100), rabbit Irx4 (Abcam, 1:200), goat nkx2.5 (Santa Cruz, 1:50), mouse connexin 40 (Thermo Fisher Scientific, 1:200), and fibroblast-specific protein (Abcam, 1:100). After primary and secondary antibodies, cells were rinsed two times in PBS with 0.2% triton x-100. Donkey secondaries conjugated to Alexa Fluor dyes were used at 1:1000 and incubated at RT for 1 h. DAPI or Hoechst was used to visualize nuclei. Cells were imaged either on an EVOS system in wells (Thermo Fisher Scientific) or a Leica confocal microscope in cover glass or ibidi 8-well microslides. Image J was used to quantify cell area by outer boundaries of cTnT staining.

polyinosinic-polycytidylic acid [pI:C]: the hPSC-CM cell size result is given as “twice as large”.
